Assay results as given in patent US8394829B2, “Bi-functional quinoline analogs” (Gilead Sciences, Inc., priority 2010, dated 2013).
pEC50, pIC50: −log10 of the molar value.

Columns and labels:
[1] = biological target: T1, human recombinant beta-2 adrenoreceptors (Homo sapiens, UniProt P07550); assay: Functional agonism of human recombinant beta-2 adrenoreceptors expressed in CHO cells (cAMP HTRF); format: cell-based; details: CHO cells expressing human beta-2 adrenoreceptors, cAMP elevation, 30 min
T1 construct: expressed in transfected cells; host or cells: CHO cells
Experimental: Functional Agonism of Human Recombinant Beta-2 Adrenoreceptors Expressed in Chinese Hamster Oocytes (CHO)
Test compounds were incubated for 30 min with CHO cells expressing the human recombinant beta-2 adrenoreceptors. Agonism of the receptor was measured by the elevation of intracellular cyclic-AMP over control levels detected using a homogeneous time resolved fluorescence (HTRF) format. Compounds were determined to be “full” or “partial” agonists based on the maximum level of cAMP accumulated compared to the control compound isoproterenol which is a full agonist in this assay system. Concentration response curves were generated for test compounds and the EC50 (molar concentration of the agonist which produced 50% of the maximal response for that compound) was determined. These assays were performed using a protocol based on the original description of the assay by Baker, J. G. (2005) Brit. J. Pharmacol.; 144:317-322.
EC50 determinations for the compounds presented above are seen in the third column of Table 1 (Beta 2 EC50).

[2] = system: LPS-induced TNF-α release from human peripheral blood mononuclear cells (PBMC); assay: Inhibition of LPS-induced TNF-α release from human PBMC; format: cell-based; details: LPS 0.4 ng/mL, 6 h, presence or absence of ICI-118551 not given
From the text: Inhibition of Lipopolysaccharide (LPS)-Induced Tumour Necrosis Factor Alpha (TNF-α) Release from Human Peripheral Blood Mononuclear Cells (PBMC)
Human whole blood was drawn from donors and cell purification initiated within two hours. Peripheral blood mononuclear cells (PBMC) were purified using a standard Ficoll gradient purification technique and aliquoted at a concentration of 100,000 cells/well in 96 well plates. Beta-2 adrenoreceptor agonists are also anti-inflammatory for some immune cells expressing the receptor and in this assay they can inhibit tumor necrosis factor-alpha (TNF-α) production. Therefore PBMC were pre-incubated for 30 min in the presence of the beta-2 adrenoreceptor antagonist ICI-118551 [3-(isopropylamino)-1-[(7-methyl-4-indanyl)oxy]butan-2-ol] (10 μM) to determine the PDE4 directed activity of test compounds, and in the absence of ICI-118551 for the combined PDE4 and beta-2 receptor directed activity. Test compounds were dissolved in DMSO and diluted in buffer (final DMSO concentration of 0.1% v/v) and were then added to the cell suspensions and pre-incubated for a further 1 h at 37° C. LPS solution was then added (0.4 ng/mL) and the cells incubated for a further 6 h. At the end of the incubation period the cell supernatants were collected and TNF-α was measured using a Procarta Cytokine Assay Kit (Affymetrix, Santa Clara, Calif.) according to the manufacturers' instructions. Data were analyzed using MiraiBio Masterplex QT v4.0 software (MasterPlex Version 1.0.1.18 Copyright 2008, Hitachi Software Engineering Co., Ltd) and used to extrapolate Mean Fluorescence Intensity (MFI) into concentrations of TNF-α and mean values from replicate wells were determined. Inhibition curves were plotted using a nonlinear curve fit employing a single-site binding model to determine the IC50 value for each test compound in the presence or absence of ICI-118551 using GraphPad Prism 5 for Windows, version 5.02 (GraphPad Software, San Diego Calif.).
EC50 determinations for the compounds presented above are seen in the fourth column of Table 1 (PBMC TNF EC50).

Human recombinant PDE4B2 = biological target: T2, Human recombinant PDE4B2 (Homo sapiens, UniProt Q07343); assay: Inhibition of PDE4B4 enzyme activity (PDE Glo Assay); format: biochemical; details: human recombinant PDE4B2, 50 nM cAMP; read-out: PDE4 IC50
T2 construct: purchased BPS Bioscience
Experimental: Biological Examples Inhibition of PDE4B4 Enzyme Activity
The inhibitory activity of test compounds were determined using the PDE Glo Assay (Promega, V1361). The PDE-Glo Reaction Buffer was prepared (1 mL 5× buffer+4 mL water) and 150 nM solution of test compound dissolved in the Reaction Buffer, followed by 1:3 serial dilutions into Reaction Buffer. […] Human recombinant PDE4B2 (BPS Bioscience) was added to test compound in Reaction Buffer at a concentration of 0.12 nM per reaction. The enzyme and test compound were pre-incubated together at rt for 10 min. 50 nM of the enzyme substrate cAMP was then added to initiate the enzyme reaction, with the reaction terminated after one hour. Termination Buffer (1 mL 5× termination buffer+3.9 mL water+100 μL of 100 mM IBMX (ICN Chemicals, in DMSO)), was added to each reaction well to terminate the reaction. Detection Buffer (1 mL 5×PDE-Glo Detection buffer+3.96 mL water+40 μL PKA (supplied in kit)) was added to the cAMP-enzyme-test compound mix and this secondary reaction proceeded for 20 minutes at rt. An equal volume of Kinase Glo Reagent was then added to the reaction mixture and after 10 min luminescence was measured using a luminometer (EnVision, 0.1 sec read for luminescence). Luminescence values were […] related to levels of cAMP in the reaction mixture. Data were plotted as relative light units (RLU) versus test compound concentration and the IC50 determined using GraphPad Prism 5.0, using a nonlinear curve fit in a single-site binding model.
IC50 determinations for the compounds presented above are seen in the first column of Table 1 (PDE4IC50).

[3] = biological target: T1, human recombinant beta-2 adrenoreceptors; assay: Beta-2 adrenoceptor binding assay ([3H](−)CGP-12177 displacement); details: CHO cells expressing human beta-2 adrenoreceptors, [3H](−)CGP-12177 0.3 nM, 120 min
Experimental: Beta-2 Adrenoceptor Binding Assay
Test compounds were incubated for 120 min with Chinese hamster oocyte (CHO) cells expressing the human recombinant beta-2 adrenoreceptors. Binding of test compounds to the beta-2 adrenoreceptors was determined by measuring the displacement of the radiolabeled ligand [^3H](−)CGP-12177 (0.3 nM) from the receptor measured by a scintillation counting. Concentration response curves were generated for test compounds and the IC50 (molar concentration of the compound which produced 50% inhibition for the maximal response for that compound) was determined. These assays were performed using a protocol based on the original description of the assay by Joseph et al., (2004) Naun.-Sch. Arch. Pharm.; 369:525-532.
IC50 determinations for the compounds presented above are seen in the second column of Table 1 (Beta 2 IC50).

T1 sequence (P07550 whole entry): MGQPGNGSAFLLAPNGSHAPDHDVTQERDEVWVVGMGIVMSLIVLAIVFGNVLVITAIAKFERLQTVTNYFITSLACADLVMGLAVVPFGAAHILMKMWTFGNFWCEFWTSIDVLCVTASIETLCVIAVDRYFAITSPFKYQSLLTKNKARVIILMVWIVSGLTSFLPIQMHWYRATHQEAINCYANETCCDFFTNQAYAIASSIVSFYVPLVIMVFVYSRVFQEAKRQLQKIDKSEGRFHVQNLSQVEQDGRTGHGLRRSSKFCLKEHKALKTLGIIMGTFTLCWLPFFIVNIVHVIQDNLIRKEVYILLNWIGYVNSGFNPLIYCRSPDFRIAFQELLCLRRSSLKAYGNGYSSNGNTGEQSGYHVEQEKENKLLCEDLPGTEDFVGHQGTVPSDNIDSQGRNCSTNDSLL
T2 sequence (Q07343 1-564 isoform Q07343-2): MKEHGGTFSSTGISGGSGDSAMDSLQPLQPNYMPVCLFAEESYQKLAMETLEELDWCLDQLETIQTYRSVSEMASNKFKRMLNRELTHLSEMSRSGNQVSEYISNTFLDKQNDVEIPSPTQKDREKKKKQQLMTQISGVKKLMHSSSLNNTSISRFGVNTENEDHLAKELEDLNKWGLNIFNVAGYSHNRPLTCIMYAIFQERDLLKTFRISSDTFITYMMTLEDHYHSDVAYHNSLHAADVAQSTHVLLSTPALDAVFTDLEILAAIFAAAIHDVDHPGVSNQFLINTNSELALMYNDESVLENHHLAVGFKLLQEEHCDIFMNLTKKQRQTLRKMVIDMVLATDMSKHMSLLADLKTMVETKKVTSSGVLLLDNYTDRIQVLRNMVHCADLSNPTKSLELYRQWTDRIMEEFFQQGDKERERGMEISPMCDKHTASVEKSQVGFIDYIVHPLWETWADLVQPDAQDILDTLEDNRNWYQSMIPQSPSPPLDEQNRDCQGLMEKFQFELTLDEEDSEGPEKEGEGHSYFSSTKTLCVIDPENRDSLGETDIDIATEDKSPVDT

| SMILES | pEC50 [1] | pIC50 (Human recombinant PDE4B2) | pIC50 [3] | pEC50 [2] |
| --- | --- | --- | --- | --- |
| COc1cccc(Nc2c(C(N)=O)cnc3c(C)cc(S(=O)(=O)c4cccc(C(=O)N(C)CCCCCCNC[C@H](O)c5ccc(O)c6[nH]c(=O)ccc56)c4)cc23)c1 [Example 14] | < 6.52 | > 7.00 | < 6.52 | > 7.00 |
| COc1cccc(Nc2c(C(N)=O)cnc3c(C)cc(S(=O)(=O)c4cccc(C(=O)Nc5ccc(C#CCCCN(C)C[C@H](O)c6ccc(O)c7[nH]c(=O)ccc67)cc5)c4)cc23)c1 [Example 8, (R)-6-((3-((4-(5-((2-hydroxy-2-(8-hydroxy-2-oxo-1,2-dihydroquinolin-5-yl)ethyl)(methyl)amino)pent-1-yn-1-yl)phenyl)carbamoyl)phenyl)sulfonyl)-4-((3-methoxyphenyl)amino)-8-methylquinoline-3-carboxamide] | < 6.52 | > 7.00 | < 6.52 | > 7.00 |
| COc1cccc(Nc2c(C(N)=O)cnc3c(C)cc(S(=O)(=O)c4cccc(C(=O)Nc5ccc(CCCCCNC[C@H](O)c6ccc(O)c7[nH]c(=O)ccc67)cc5)c4)cc23)c1 [Example 10, (R)-6-[[3-[[4-[5-[[2-Hydroxy-2-(8-hydroxy-2-oxo-1,2-dihydroquinolin-5-yl)ethyl]amino]pentyl]phenyl]carbamoyl]phenyl]sulfonyl]-4-[(3-methoxyphenyl)amino]-8-methylquinoline-3-carboxamide 2,2,2-trifluoroacetate] | > 7.00 | > 7.00 | > 7.00 | > 7.00 |
| COc1cccc(Nc2c(C(N)=O)cnc3c(C)cc(S(=O)(=O)CCCCCCCCCCCNC[C@H](O)c4cc(O)cc5c4OCC(=O)N5)cc23)c1 [Example 46, (R)-6-((11-((2-hydroxy-2-(6-hydroxy-3-oxo-3,4-dihydro-2H-benzo[b][1,4]oxazin-8-yl)ethyl)amino)undecyl)sulfonyl)-4-((3-methoxyphenyl)amino)-8-methylquinoline-3-carboxamide] | > 6.52 | > 7.00 | > 7.00 | > 7.00 |
| COc1cccc(Nc2c(C(N)=O)cnc3c(C)cc(S(=O)(=O)c4cccc(C(=O)Nc5ccc(C#CCCCNC[C@H](O)c6ccc(O)c(NC=O)c6)cc5)c4)cc23)c1 [Example 31, (R)-6-[[3-[[4-[5-[[2-(3-Formamido-4-hydroxyphenyl)-2-hydroxyethyl]amino]pent-1-ynyl]phenyl]carbamoyl]phenyl]sulfonyl]-4-[(3-methoxyphenyl)amino]-8-methylquinoline-3-carboxamide] | > 6.52 | > 7.00 | > 6.52 | > 7.00 |
| COc1cccc(Nc2c(C(N)=O)cnc3c(C)cc(S(=O)(=O)c4cccc(CN(C)C(=O)c5cccc(CC(C)NC[C@H](O)c6ccc(O)c7[nH]c(=O)ccc67)c5)c4)cc23)c1 (stereo partly drawn) [Example 13, 6-[[3-[[3-[2-[[(R)-2-Hydroxy-2-(8-hydroxy-2-oxo-1,2-dihydroquinolin-5-yl)ethyl]amino]propyl]-N-methylbenzamido]methyl]phenyl]sulfonyl]-4-[(3-methoxyphenyl)amino]-8-methylquinoline-3-carboxamide] | > 7.00 | > 7.00 | > 7.00 | > 7.00 |

Further lines, with some results ahead:

| pEC50 [1] | pIC50 (Human recombinant PDE4B2) | pIC50 [3] | SMILES | pEC50 [2] |
| --- | --- | --- | --- | --- |
| > 7.00 | > 7.00 | > 7.00 | COc1cccc(Nc2c(C(N)=O)cnc3c(C)cc(S(=O)(=O)c4ccc(-c5ccc(CNC[C@H](O)c6ccc(O)c7[nH]c(=O)ccc67)cc5)cc4)cc23)c1 [Example 48, (R)-6-((4′-(((2-hydroxy-2-(8-hydroxy-2-oxo-1,2-dihydroquinolin-5-yl)ethyl)amino)methyl)-[1,1′-biphenyl]-4-yl)sulfonyl)-4-((3-methoxyphenyl)amino)-8-methylquinoline-3-carboxamide] | > 7.00 |
| > 7.00 | > 7.00 | > 7.00 | COc1cccc(Nc2c(C(N)=O)cnc3c(C)cc(S(=O)(=O)c4cccc(C(=O)N5CCC(OCCCCCCNC[C@H](O)c6ccc(O)c7[nH]c(=O)ccc67)CC5)c4)cc23)c1 [Example 15, (R)-6-((3-(4-((6-((2-hydroxy-2-(8-hydroxy-2-oxo-1,2-dihydroquinolin-5-yl)ethyl)amino)hexyl)oxy)piperidine-1-carbonyl)phenyl)sulfonyl)-4-((3-methoxyphenyl)amino)-8-methylquinoline-3-carboxamide] | > 7.00 |
| > 7.00 | > 7.00 | > 7.00 | COc1cccc(Nc2c(C(N)=O)cnc3c(C)cc(S(=O)(=O)c4cccc(C(=O)N5CCN(C(=O)c6cccc(CC(C)NC[C@H](O)c7ccc(O)c8[nH]c(=O)ccc78)c6)CC5)c4)cc23)c1 (stereo partly drawn) [Example 17, 6-((3-(4-(3-(2-(((R)-2-hydroxy-2-(8-hydroxy-2-oxo-1,2-dihydroquinolin-5-yl)ethyl)amino)propyl)benzoyl)piperazine-1-carbonyl)phenyl)sulfonyl)-4-((3-methoxyphenyl)amino)-8-methylquinoline-3-carboxamide] | > 7.00 |
| > 7.00 | > 7.00 | < 6.52 | COc1cccc(Nc2c(C(N)=O)cnc3c(C)cc(S(=O)(=O)c4cccc(C(=O)N(C)CCCCCCNC[C@H](O)c5ccc(O)c(NC=O)c5)c4)cc23)c1 [Example 28, (R)-6-((3-((6-((2-(3-formamido-4-hydroxyphenyl)-2-hydroxyethyl)amino)hexyl)(methyl)carbamoyl)phenyl)sulfonyl)-4-((3-methoxyphenyl)amino)-8-methylquinoline-3-carboxamide] | > 7.00 |
| > 7.00 | > 7.00 | > 7.00 | COc1cccc(Nc2c(C(N)=O)cnc3c(C)cc(S(=O)(=O)c4cccc(C(=O)Nc5ccc(CCCCOCCCCCCNC[C@H](O)c6ccc(O)c7[nH]c(=O)ccc67)cc5)c4)cc23)c1 [Example 38, (R)-6-((3-((4-(4-((6-((2-hydroxy-2-(8-hydroxy-2-oxo-1,2-dihydroquinolin-5-yl)ethyl)amino)hexyl)oxy)butyl)phenyl)carbamoyl)phenyl)sulfonyl)-4-((3-methoxyphenyl)amino)-8-methylquinoline-3-carboxamide] | > 7.00 |
